In patent US20010020029A1, “New multidose vial formulations for administering endo-N-(9-methyl-9-azabicyclo[3.3.1]non-3-yl)-1-methyl-1H- indazole-3-carboxamide hydrochloride” (SmithKline Beecham p.l.c., priority 1998, published 2001):
Marks after values point to notes of the source that are not given here.

Experiments:
[1] = Stability of preservative systems to autoclave (placebo solutions, pH6, 121° C.); assay type: physicochemical; details: for Area percent for the unknown peak at 15 mins / Content at 15 mins (percentage of total peak area): autoclaved 15 mins; for Area percent for the unknown peak at 60 mins / Content at 60 mins (percentage of total peak area): autoclaved 60 mins; for Area percent for the unknown peak, initial / Initial content (percentage of total peak area): before autoclaving; for Content at 15 mins (percentage of total peak area) / Content at 60 mins (percentage of total peak area) / Initial content (percentage of total peak area): single paraben system, area normalisation; for Content after 15 mins (% of initial): autoclaved 15 minutes at 121° C.; for Content after 15 mins (% of initial) / Contents after 60 mins (% of initial): pH6; for Contents after 60 mins (% of initial): autoclaved 60 minutes at 121° C.; for Initial content: placebo solution pH6, before autoclaving; for stability to autoclaving (in words): up to 60 minutes at 121° C.
Method: The five preservative systems were assessed for stability to the autoclave process. Placebo solutions were prepared at pH6, filled into 2 ml glass vials and autoclaved for 15 and 60 minutes at 121° C. A cycle time of 60 minutes was selected to mimic the most extreme conditions to which a vial on the outside of a full autoclave load could be subjected to. Solutions were prepared at pH6 since this was the target pH of the multidose dose formulation. The early experiments were performed using 2 ml flint glass vials and West #1816 Teflon faced, bromobutyl rubber stopper.
External standards of the parabens could not be prepared due to their poor aqueous solubility. The results were therefore determined by are normalization, whereby peak areas are expressed as a percentage of the total peak area of the chromatograph.
NOTE: The results are expressed as percentage of total peak area determined by area normalisation.
Area percent for the unknown peak

[2] = Stability of meta-cresol formulation to autoclaving; assay type: physicochemical; details: autoclave cycle
Method: To investigate this phenomenon further, the stability during autoclaving experiment was repeated on samples of the meta-cresol formulation. The degradation product content increased from 0.05% before autoclaving to 0.53% at 15 minutes then 0.93% at 60 minutes. […] Meta-cresol was therefore rejected as a possible preservative.

[3] = tested on: gram-positive and gram-negative bacteria, yeasts and molds; details: cited from earlier work; for efficacy against gram-positive and gram-negative bacteria, yeasts and molds: over the pH range 5-7
[4] = tested on: bacteria, yeasts and molds; assay: USP test for preservative efficacy (overall); assay type: cell-based; details: 1% w/w, full vials, at the time of manufacture
Method: The target pH of the multidose vial is 6 and limits of 5 to 7. […] Efficacy of the preservative was therefore assessed over the lower pH range 4 to 6. Vials prepared at pH4, 5 and 6 were tested for preservative efficacy according to the USP XXII 1990—“Antimicrobial Preservative Effectiveness.”
For bacteria, the acceptance criteria require that the number of organisms per mL is reduced by a factor of not less than 10^3 in 14 days and there is no increase thereafter. All three batches met these criteria for P aeruginosa, S. aureus and E. coli.
All three batches met this criterion for C. albicans and A. niger.
In summary, vials prepared at pH4, 5 and 6 all pass the USP test for preservative efficacy.

| Structure (SMILES) | Area percent for the unknown peak at 15 mins [1] | Area percent for the unknown peak at 60 mins [1] | Area percent for the unknown peak, initial [1] | Content at 15 mins (percentage of total peak area) [1] [%] | Content at 60 mins (percentage of total peak area) [1] [%] | Initial content (percentage of total peak area) [1] [%] | compatibility with granisetron hydrochloride [2] | Content after 15 mins (% of initial) [1] | Contents after 60 mins (% of initial) [1] | Initial content [1] [mg/mL] | stability to autoclaving (in words) [1] | efficacy against gram-positive and gram-negative bacteria, yeasts and molds [3] | antimicrobial preservative efficacy [4] | efficacy as a function of pH ([3]; literature) |
| --- | --- | --- | --- | --- | --- | --- | --- | --- | --- | --- | --- | --- | --- | --- |
| COC(=O)c1ccc(O)cc1 [Methyl-Parabens, Methyl paraben] | (3.7%)* | (6.5%)* | (0.2%)* | 96.3 | 93.5 | 99.8 | – | – | – | – | – | – | – | – |
| Cc1cccc(O)c1 [Meta-Cresol, Meta-cresol] | – | – | – | – | – | – | incompatible | 100 % of initial | 100 % of initial | 2.6 | good stability with no change in preservative content | good efficacy | – | – |
| CCCOC(=O)c1ccc(O)cc1 [Propyl Parabens, Propyl paraben] | 1.6% | 2.7% | 0.6% | 98.4 | 97.2 | 99.4 | – | – | – | – | – | – | – | – |
| OCc1ccccc1 [Benzyl Alcohol, Benzyl alcohol] | – | – | – | – | – | – | – | 100 % of initial | 100 % of initial | 10.0 | good stability with no change in preservative content | moderate efficacy | efficacious | decreases with increasing pH above pH5 |
